Data from patent publication US20200254041A1, “RAPID ONSET AND EXTENDED ACTION PLANT-BASED AND SYNTHETIC CANNABINOID FORMULATIONS” (RECEPTOR HOLDINGS, INC., priority 2017, published 2020).
In brackets after ≈: the same amount, converted by molar mass.

Legend:
[1] = cited from earlier work
[2] = Cannabis/SNAC oral rat pharmacokinetic (PK) study; format: in vivo; details: rats; for AUC0-Tlast increase over the cannabis alone group / Cmax increase over the cannabis alone group: 500 mg/kg SNAC and 50 mg/kg cannabis extract vs 25 mg/kg cannabis alone; for AUC compared to the cannabis alone group: 25 mg/kg cannabis extract
Method: Summary of cannabis/SNAC oral rat pharmacokinetic (PK) study.
Methods. Animals were dosed on Day 1 and a series of blood samples were collected over a period of 4 hours post dose for pharmacokinetic evaluation. Animals were euthanized following collection of their last blood sample.

study participants [3] = test: Onset and duration of action of orally administered cannabis/SNAC formulation (200 mg SNAC) vs cannabis-only control; participant-reported euphoria/dysphoria; format: in vivo, human; details: 200 mg SNAC in oral cannabis formulation
Method: This study was designed to assess the utility of SNAC in enabling a rapid-acting oral form of cannabis.
Selection of Participants. Six study participants were recruited to ingest cannabis formulations and record the onset, duration, and intensity of cannabis-induced euphoria and/or dysphoria.
(§1) Formulations. The selected cannabis concentrate is commercially available and was provided to participants in an ethanol solution. The concentrate contains 8 mg THC per dose. It was selected because it contains a high percentage of THC, which provides a noticeable effect on user-reported “euphoria”.
(§2) Methods. For the Control experiment, each participant mixed the cannabis concentrate with 15 ml (one tablespoon) of aqueous ethanol, and immediately swallowed the mixture.
(§3) For both the Control experiment and the Test experiment, each participant recorded the time of dose administration, the time of onset of euphoria and/or dysphoria, and the observed level of euphoria and/or dysphoria in fifteen minute intervals for five hours following administration of the cannabis dose. Euphoria and dysphoria were reported using a scale value, in a range from 1-10.

study participants [4] = test: Onset and duration of action of orally administered cannabis/SNAC formulation at a low SNAC dose (100 mg); participant-reported euphoria; format: in vivo, human; details: 100 mg SNAC in oral cannabis formulation
Method: This study was designed to assess the utility of SNAC in enabling a rapid-acting oral form of cannabis at a low dose.
Selection of Participants. Three study participants were recruited to ingest cannabis formulations and record the onset, duration, and intensity of cannabis-induced euphoria and/or dysphoria.
as §1, §2, §3

[5] = cited from earlier work; remark: listed apart in the source
[6] = 25 mg/kg cannabis extract with SNAC at either 250 or 500 mg/kg

Cc1cc(O)c2c(=O)c3c(O)cc(O)c4c5c(O)cc(O)c6c(=O)c7c(O)cc(C)c8c1c2c(c34)c(c78)c65 [Hypericin]
water solubility (in words) [1]: insoluble in water

COC(=O)[C@H]1[C@H]2C[C@@H]3c4[nH]c5cc(OC)ccc5c4CCN3C[C@H]2C[C@@H](OC(=O)c2cc(OC)c(OC)c(OC)c2)[C@@H]1OC [Reserpine]
water solubility (in words) [1]: low water solubility

C[C@@H]1O[C@@H](O[C@H]2[C@H](Oc3cc(O)c4c(c3)O[C@H](c3ccc(O)cc3)CC4=O)O[C@H](CO)[C@@H](O)[C@@H]2O)[C@H](O)[C@H](O)[C@H]1O [Naringin]
water solubility (in words) [1]: low water solubility

COc1cc(CNC(=O)CCCC/C=C/C(C)C)ccc1O [Capsaicin]
water solubility (in words) [1]: low water solubility

Oc1ccc(C=Cc2cc(O)cc(O)c2)cc1 [Resveratrol]
aqueous solubility [1]: 30 µg/mL (≈ 131 µM)

C=CC(C)(O)CCC=C(C)C (stereo not shown) [Linalool]
water solubility (in words) [1]: low water solubility

COc1cc(/C=C/C(=O)CC(=O)/C=C/c2ccc(O)c(OC)c2)ccc1O [Curcumin]
aqueous solubility [1]: < 100 µg/mL

COc1ccc([C@@H]2CC(=O)c3c(O)cc(O[C@@H]4O[C@H](CO[C@@H]5O[C@@H](C)[C@H](O)[C@@H](O)[C@H]5O)[C@@H](O)[C@H](O)[C@H]4O)cc3O2)cc1O [Hesperidin]
water solubility (in words) [1]: low water solubility

CC[C@]1(O)C[C@@H]2CN(CCc3c([nH]c4ccccc34)[C@@](C(=O)OC)(c3cc4c(cc3OC)N(C)[C@H]3[C@@](O)(C(=O)OC)[C@H](OC(C)=O)[C@]5(CC)C=CCN6CC[C@]43[C@@H]65)C2)C1 [Vinblastine]
water solubility (in words) [1]: low water solubility

C[C@@H]1O[C@@H](Oc2c(-c3ccc(O)c(O)c3)oc3cc(O)cc(O)c3c2=O)[C@H](O)[C@H](O)[C@H]1O [Quercitrin]
water solubility (in words) [1]: low water solubility

C=C(C)[C@@H]1CCC(C)=C[C@H]1c1c(O)cc(CCCCC)cc1O [CBD, cannabidiol]
water solubility (in words) [1]: very low or no solubility in water
Cmax increase over cannabis alone ([2]; 25 mg/kg cannabis extract with SNAC 250 mg/kg): 2.9 fold
Cmax increase over cannabis alone ([2]; 25 mg/kg cannabis extract with SNAC 500 mg/kg): 2.8 fold
Cmax increase over cannabis alone [2, 6]: 2.8 fold
AUC0-Tlast increase over the cannabis alone group [2]: 22.1 fold
Cmax increase over the cannabis alone group [2]: 14.2 fold

O=C([O-])CCCCCCCNC(=O)c1ccccc1O.[Na+] [SNAC, sodium N-[8-(2-hydroxybenzoyl)amino] caprylate]
effect of the absorption enhancer on the duration of action of cannabis (study participants [3]): no effect on the duration of action of cannabis
effect of the absorption enhancer on the duration of action of cannabis (study participants [4]): no effect on the duration of action of cannabis

C[C@@H]1O[C@@H](OC[C@H]2O[C@@H](Oc3c(-c4ccc(O)c(O)c4)oc4cc(O)cc(O)c4c3=O)[C@H](O)[C@@H](O)[C@@H]2O)[C@H](O)[C@H](O)[C@H]1O [Rutin]
water solubility (in words) [1]: low water solubility

CCCCCc1cc(O)c2c(c1)OC(C)(C)[C@@H]1CCC(C)=C[C@@H]21 [THC, delta-9-tetrahydrocannabinol]
duration of action / effects ([5]; after oral administration): 4 to 6 h
onset of action ([5]; after oral administration): up to 1.5 hours
peak effect at ([5]; after oral administration): 2 to 4 h
absorbed ([5]; after single oral doses): 90-95%
administered dose that reaches the systemic circulation ([5]; oral, first pass hepatic metabolism and poor aqueous solubility): 4-20%
Cmax increase over cannabis alone [2, 6]: 1.4 fold
AUC compared to the cannabis alone group ([2]; 250 mg/kg SNAC group): 1.1 fold
AUC compared to the cannabis alone group ([2]; 500 mg/kg SNAC group): lower
AUC compared to the cannabis alone group ([2]; both SNAC groups (250 and 500 mg/kg)): comparable
AUC0-Tlast increase over the cannabis alone group [2]: 6.3 fold
Cmax increase over the cannabis alone group [2]: 6.9 fold

C=CCc1ccc(O)c(OC)c1 [Eugenol]
water solubility (in words) [1]: low water solubility
